We go through 7 molecules from PMC6199744, “Development of Chemical Proteomics for the Folateome and Analysis of the Kinetoplastid Folateome” (ACS Infectious Diseases, 2018).

Type in all cases: binding
For experiment [1], the target named is T1, HeLa cell extract proteins (Homo sapiens, UniProt P10599).
T1 construct: endogenous in cells; host or cells: HeLa cell extract
T1 sequence (P10599 1-105): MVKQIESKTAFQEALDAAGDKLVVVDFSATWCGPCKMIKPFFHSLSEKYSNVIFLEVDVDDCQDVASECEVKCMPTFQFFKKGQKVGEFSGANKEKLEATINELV

Experiment [2] has as its target T2, HeLa cell extract proteins (Homo sapiens, UniProt P07737).
T2 construct: endogenous in cells; host or cells: HeLa cell extract

Experiment [3] deals with T3, HeLa cell extract proteins (Homo sapiens, UniProt P04075).
T3 construct: endogenous in cells; host or cells: HeLa cell extract
T3 sequence (P04075 1-364): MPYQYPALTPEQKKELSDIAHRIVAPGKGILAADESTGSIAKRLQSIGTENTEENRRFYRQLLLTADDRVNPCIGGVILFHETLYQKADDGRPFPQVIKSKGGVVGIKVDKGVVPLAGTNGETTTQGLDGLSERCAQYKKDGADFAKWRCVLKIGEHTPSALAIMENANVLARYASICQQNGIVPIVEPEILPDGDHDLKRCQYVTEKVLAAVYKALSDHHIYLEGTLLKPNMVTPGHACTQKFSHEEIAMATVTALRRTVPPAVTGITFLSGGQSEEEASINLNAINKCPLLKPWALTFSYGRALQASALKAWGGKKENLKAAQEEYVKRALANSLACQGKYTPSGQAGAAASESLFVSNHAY

The target in experiment [4] is T4, HeLa cell extract proteins (Homo sapiens, UniProt P17858).
T4 construct: endogenous in cells; host or cells: HeLa cell extract
T4 sequence (P17858 1-780): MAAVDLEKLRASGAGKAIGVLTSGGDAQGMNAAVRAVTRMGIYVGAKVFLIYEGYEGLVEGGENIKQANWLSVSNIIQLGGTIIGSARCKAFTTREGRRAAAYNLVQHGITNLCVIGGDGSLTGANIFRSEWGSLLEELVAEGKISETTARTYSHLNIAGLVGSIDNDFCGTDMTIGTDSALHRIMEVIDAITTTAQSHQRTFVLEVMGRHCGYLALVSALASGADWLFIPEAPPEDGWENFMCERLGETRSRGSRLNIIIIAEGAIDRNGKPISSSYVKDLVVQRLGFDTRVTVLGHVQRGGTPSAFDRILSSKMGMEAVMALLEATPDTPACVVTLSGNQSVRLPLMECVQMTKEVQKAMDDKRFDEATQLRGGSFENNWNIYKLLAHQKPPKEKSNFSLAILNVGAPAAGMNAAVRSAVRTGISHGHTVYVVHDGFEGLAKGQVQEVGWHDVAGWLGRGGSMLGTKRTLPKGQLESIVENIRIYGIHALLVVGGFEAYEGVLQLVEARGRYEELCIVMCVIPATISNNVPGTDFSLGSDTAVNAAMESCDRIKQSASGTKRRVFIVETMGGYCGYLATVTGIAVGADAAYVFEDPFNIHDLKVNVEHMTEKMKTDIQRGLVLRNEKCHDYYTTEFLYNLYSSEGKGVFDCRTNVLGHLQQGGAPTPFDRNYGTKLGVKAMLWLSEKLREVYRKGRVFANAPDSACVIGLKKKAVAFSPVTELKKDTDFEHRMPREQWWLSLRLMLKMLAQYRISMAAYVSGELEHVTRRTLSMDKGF

Experiment [5] has as its target T5, HeLa cell extract proteins (Homo sapiens, UniProt P04040).
T5 construct: endogenous in cells; host or cells: HeLa cell extract
T5 sequence (P04040 1-527): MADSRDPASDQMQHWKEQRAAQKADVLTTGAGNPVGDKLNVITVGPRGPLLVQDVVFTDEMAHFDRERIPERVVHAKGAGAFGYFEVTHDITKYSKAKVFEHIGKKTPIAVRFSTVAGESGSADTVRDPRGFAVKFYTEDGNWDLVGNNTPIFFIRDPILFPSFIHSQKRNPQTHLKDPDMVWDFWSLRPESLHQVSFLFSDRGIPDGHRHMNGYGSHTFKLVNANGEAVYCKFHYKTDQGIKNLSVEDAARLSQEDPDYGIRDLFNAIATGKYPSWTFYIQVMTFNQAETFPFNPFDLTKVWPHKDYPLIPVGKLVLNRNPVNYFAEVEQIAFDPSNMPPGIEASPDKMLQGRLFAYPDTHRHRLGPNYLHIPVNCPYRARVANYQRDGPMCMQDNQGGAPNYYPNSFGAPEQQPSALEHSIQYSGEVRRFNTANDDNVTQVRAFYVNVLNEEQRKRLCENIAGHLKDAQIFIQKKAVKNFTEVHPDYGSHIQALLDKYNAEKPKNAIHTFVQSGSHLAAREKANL

The target of experiment [6] is T6, HeLa cell extract proteins (Homo sapiens, UniProt P16152).
T6 construct: endogenous in cells; host or cells: HeLa cell extract
T6 sequence (P16152 1-277): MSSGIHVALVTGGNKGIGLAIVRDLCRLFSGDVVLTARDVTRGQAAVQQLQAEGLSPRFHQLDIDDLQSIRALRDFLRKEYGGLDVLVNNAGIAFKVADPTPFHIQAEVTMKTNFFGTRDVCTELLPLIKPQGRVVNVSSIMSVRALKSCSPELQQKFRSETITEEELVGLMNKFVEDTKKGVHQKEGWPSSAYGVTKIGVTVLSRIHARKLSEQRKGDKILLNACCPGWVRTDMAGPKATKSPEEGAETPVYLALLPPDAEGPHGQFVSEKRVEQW

In experiment [7] the target is T7, HeLa cell extract proteins (Homo sapiens, UniProt Q9NPA3).
T7 construct: endogenous in cells; host or cells: HeLa cell extract

In experiment [8] the target is T8, HeLa cell extract proteins (Homo sapiens, UniProt O75608).
T8 construct: endogenous in cells; host or cells: HeLa cell extract

Experiment [9] addresses T9, HeLa cell extract proteins (Homo sapiens, UniProt O00743).
T9 construct: endogenous in cells; host or cells: HeLa cell extract
T9 sequence (O00743 1-305): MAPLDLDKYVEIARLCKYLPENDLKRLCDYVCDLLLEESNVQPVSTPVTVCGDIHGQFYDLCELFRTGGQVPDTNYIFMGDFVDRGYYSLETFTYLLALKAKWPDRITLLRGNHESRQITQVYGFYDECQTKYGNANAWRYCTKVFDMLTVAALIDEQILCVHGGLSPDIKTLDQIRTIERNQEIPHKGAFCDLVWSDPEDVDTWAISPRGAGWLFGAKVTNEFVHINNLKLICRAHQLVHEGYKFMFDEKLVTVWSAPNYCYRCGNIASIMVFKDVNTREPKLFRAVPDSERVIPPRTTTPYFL

Experiment [10] deals with T10, HeLa cell extract proteins (Homo sapiens, UniProt Q6YHU6).
T10 construct: endogenous in cells; host or cells: HeLa cell extract

Where [11] appears, read: HeLa, protein PFN1 (PROFILIN-1.).
[12] abbreviates: HeLa, protein ALDOA (45 KDA PROTEIN.).

Like-named read-outs stand apart in the source and are kept apart here.

T8 sequence (O75608 whole entry): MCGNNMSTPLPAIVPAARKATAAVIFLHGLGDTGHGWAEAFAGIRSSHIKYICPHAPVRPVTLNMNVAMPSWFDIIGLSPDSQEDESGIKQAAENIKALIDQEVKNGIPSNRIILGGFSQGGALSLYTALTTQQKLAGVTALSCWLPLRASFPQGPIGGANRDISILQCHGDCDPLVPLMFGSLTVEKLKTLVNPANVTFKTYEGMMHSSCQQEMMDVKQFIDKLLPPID
T7 sequence (Q9NPA3 whole entry): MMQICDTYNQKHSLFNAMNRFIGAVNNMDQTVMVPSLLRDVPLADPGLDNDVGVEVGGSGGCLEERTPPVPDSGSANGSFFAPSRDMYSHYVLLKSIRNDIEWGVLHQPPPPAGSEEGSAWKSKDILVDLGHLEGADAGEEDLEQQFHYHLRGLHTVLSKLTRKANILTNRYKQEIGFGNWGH
T10 sequence (Q6YHU6 whole entry): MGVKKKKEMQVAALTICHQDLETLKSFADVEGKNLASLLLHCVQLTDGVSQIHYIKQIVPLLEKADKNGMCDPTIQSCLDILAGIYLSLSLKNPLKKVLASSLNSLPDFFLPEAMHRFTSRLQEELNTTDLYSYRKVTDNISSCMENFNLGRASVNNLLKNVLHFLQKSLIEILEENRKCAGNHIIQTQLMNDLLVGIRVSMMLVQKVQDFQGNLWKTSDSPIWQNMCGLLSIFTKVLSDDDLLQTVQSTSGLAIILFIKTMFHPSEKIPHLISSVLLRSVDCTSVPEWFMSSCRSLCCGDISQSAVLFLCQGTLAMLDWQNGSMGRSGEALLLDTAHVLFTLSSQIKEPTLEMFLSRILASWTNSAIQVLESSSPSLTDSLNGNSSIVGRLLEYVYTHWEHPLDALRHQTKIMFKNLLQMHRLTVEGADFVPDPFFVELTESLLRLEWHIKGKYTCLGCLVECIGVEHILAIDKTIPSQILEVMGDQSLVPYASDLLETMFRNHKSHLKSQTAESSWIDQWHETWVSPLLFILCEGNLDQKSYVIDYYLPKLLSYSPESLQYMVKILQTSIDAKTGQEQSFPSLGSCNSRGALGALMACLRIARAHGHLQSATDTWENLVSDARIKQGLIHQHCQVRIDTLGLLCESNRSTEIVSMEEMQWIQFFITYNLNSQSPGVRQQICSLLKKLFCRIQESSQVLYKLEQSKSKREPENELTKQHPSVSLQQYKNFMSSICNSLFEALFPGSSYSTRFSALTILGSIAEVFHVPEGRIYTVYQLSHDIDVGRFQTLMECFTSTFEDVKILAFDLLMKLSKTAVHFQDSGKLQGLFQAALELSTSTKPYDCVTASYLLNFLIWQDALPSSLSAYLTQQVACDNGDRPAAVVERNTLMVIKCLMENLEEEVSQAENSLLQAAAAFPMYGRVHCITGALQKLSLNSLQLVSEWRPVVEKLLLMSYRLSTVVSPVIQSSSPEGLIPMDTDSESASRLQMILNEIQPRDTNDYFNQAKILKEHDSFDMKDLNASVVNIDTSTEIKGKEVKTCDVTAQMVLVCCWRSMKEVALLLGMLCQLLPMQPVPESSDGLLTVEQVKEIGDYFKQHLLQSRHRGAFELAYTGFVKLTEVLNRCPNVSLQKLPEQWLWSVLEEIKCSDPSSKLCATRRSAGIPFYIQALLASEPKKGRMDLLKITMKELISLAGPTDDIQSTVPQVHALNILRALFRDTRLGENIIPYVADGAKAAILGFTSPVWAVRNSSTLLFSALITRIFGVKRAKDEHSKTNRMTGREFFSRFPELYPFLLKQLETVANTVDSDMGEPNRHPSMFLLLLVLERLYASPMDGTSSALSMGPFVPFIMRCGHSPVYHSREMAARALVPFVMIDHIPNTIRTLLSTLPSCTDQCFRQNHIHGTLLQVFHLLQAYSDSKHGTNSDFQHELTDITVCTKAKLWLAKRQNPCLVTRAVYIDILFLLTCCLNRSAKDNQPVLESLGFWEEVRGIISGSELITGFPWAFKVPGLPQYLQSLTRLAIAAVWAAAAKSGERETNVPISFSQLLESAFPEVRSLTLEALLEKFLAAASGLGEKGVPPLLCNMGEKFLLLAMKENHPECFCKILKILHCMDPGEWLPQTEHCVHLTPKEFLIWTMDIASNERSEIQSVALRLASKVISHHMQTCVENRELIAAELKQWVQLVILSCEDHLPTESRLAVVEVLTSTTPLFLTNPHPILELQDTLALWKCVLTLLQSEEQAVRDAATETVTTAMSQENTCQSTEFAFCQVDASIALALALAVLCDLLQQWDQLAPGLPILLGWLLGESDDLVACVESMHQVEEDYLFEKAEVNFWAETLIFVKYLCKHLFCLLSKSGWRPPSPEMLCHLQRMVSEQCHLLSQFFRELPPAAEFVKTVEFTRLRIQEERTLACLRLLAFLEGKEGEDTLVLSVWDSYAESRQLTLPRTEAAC
T2 sequence (P07737 whole entry): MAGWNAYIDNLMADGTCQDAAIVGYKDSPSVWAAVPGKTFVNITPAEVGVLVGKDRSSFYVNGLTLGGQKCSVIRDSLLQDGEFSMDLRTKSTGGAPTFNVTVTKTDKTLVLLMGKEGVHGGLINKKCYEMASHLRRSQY

With `Nc1nc2c(c(=O)[nH]1)N(C=O)C(CNc1ccc(C(=O)N[C@@H](CCC(=O)O)C(=O)O)cc1)CN2` (stereo partly shown) [LEU, leucovorin], the “fold changes relative to vehicle control” value was 1.05 in experiment [1] (HeLa, protein TXN); 1.22 in [2] (HeLa, protein PFN1); 0.98 in [3] (protein ALDOA, HeLa); 0.96 in experiment [4] (HeLa, protein PFKL); 0.87 in [5] (protein CAT, HeLa); 0.81 in [6] (protein CBR1, HeLa). For the same molecule, the “fold changes relative to vehicle control” value in [7] (HeLa, protein MIG12) amounted to 0.91; in experiment [8] (HeLa, captured protein LYPLA1), 0.89; in experiment [9] (HeLa, protein PPP6C), 0.99; in [10] (HeLa, captured protein THADA) it was 1.06.
Turning to `Nc1nc2[nH]cc(CCc3ccc(C(=O)N[C@@H](CCC(=O)O)C(=O)O)cc3)c2c(=O)[nH]1` [PTX, pemetrexed], the “fold changes relative to vehicle control” value in experiment [1] is listed as 1.13; in experiment [2] it was 1.43; in experiment [3], 1.21; in [4], 0.89; in experiment [5], 0.88; in [6], 0.8. In addition, the “fold changes relative to vehicle control” value is listed as 0.96 in experiment [7], 0.93 in [8], 0.94 in experiment [9] and 0.98 in [10].
`CCCCCCOc1ccc(Cc2cnc(N)nc2N)cc1` [compound 1]: the “fold changes relative to vehicle control” value in experiment [1] (captured protein TXN, HeLa) was 0.95; in experiment [2] (setting [11]), 1.64 fold; in experiment [3] (setting [12]), 1.38 fold; in [4] (captured protein PFKL, HeLa), 0.92; in experiment [5] (captured protein CAT, HeLa), 0.77; in [6] (HeLa, protein CBR1), 0.89. Also, the “fold changes relative to vehicle control” value in experiment [7] (captured protein MIG12, HeLa) is 0.84; in experiment [8] (HeLa, protein LYPLA1) it was 0.92; in experiment [9] (HeLa, protein PPP6C) it was 1.01; in experiment [10] (captured protein THADA, HeLa), 1.06.
Take `CCCCCCOc1cccc(Cc2cnc(N)nc2N)c1` [compound 2]: the “fold changes relative to vehicle control” value was found to be 1.18 in experiment [1] (captured protein TXN, HeLa); 2.32 fold in [2] (setting [11]); 2.49 fold in experiment [3] (setting [12]); 0.96 in experiment [4] (captured protein PFKL, HeLa); 1.03 in [5] (captured protein CAT, HeLa); 1.14 in experiment [6] (HeLa, protein CBR1). For the same molecule, the “fold changes relative to vehicle control” value in experiment [7] (captured protein MIG12, HeLa) is on record as 1; in experiment [8] (HeLa, protein LYPLA1) it was 1.1; in experiment [9] (HeLa, protein PPP6C), 0.99; in experiment [10] (captured protein THADA, HeLa) it was 1.16.
Turning to `Nc1nc2cccc(-c3ccccc3)c2n1Cc1ccc(Cl)c(Cl)c1` [compound 3], the “fold changes relative to vehicle control” value in experiment [1] (captured protein TXN, HeLa) is 1.12; in experiment [2] (setting [11]), 1.03 fold; in experiment [3] (setting [12]) it was 0.85 fold; in experiment [4] (captured protein PFKL, HeLa) it was 1.07; in [5] (captured protein CAT, HeLa), 0.78; in [6] (HeLa, protein CBR1), 1.02. The “fold changes relative to vehicle control” value in experiment [7] (captured protein MIG12, HeLa) turned out to be 0.95; in experiment [8] (HeLa, protein LYPLA1), 0.71; in experiment [9] (HeLa, protein PPP6C) it was 1.04; in experiment [10] (captured protein THADA, HeLa), 1.09.
On to `NCCOCCOCC(=O)Nc1nc2ncc(CNc3ccc(C(=O)NC(CCC(=O)O)C(=O)O)cc3)nc2c(=O)[nH]1` (stereo not shown) [compound 6], for which the “fold changes relative to vehicle control” value in [1] (HeLa, protein TXN) is recorded as 1.28; in experiment [2] (HeLa, protein PFN1), 1.47; in [3] (protein ALDOA, HeLa), 1.34; in experiment [4] (HeLa, protein PFKL), 0.98; in [5] (protein CAT, HeLa) it was 0.94; in experiment [6] (protein CBR1, HeLa), 0.89. Further, the “fold changes relative to vehicle control” value is reported as 1.1 in [7] (HeLa, protein MIG12); 0.98 in [8] (HeLa, captured protein LYPLA1); 1.05 in [9] (HeLa, protein PPP6C); 1.11 in experiment [10] (HeLa, captured protein THADA).
For `NCCCNc1ccc(C(=O)NC(CCC(=O)O)C(=O)O)cc1` (stereo not shown) [compound 7], the “fold changes relative to vehicle control” value in [1] (HeLa, protein TXN) is reported as 1.33; in experiment [2] (HeLa, protein PFN1), 1.21; in experiment [3] (protein ALDOA, HeLa), 1.02; in [4] (HeLa, protein PFKL) it was 1.07; in experiment [5] (protein CAT, HeLa), 1.39; in [6] (protein CBR1, HeLa), 0.92. In addition, the “fold changes relative to vehicle control” value in [7] (HeLa, protein MIG12) stood at 1.11; in [8] (HeLa, captured protein LYPLA1), 0.92; in [9] (HeLa, protein PPP6C), 1.04; in experiment [10] (HeLa, captured protein THADA), 1.12.
